Data on 27 compounds can be found in patent publication US8278455B2, “5- or 6-substituted benzimidazole derivatives as inhibitors of respiratory syncytial virus replication” (Janssen Pharmaceutica N.V., priority 2003, dated 2012).

SMILES strings stand for the structures. Bounds are passed on as bounds.

The subject of the first test is Respiratory Syncytial Virus. As to the kind of experiment: In vitro screening for activity against Respiratory Syncytial Virus (MTT tetrazolium colorimetric assay, HeLa cells). The test is classed as cell-based. The conditions noted are these: activity category; protection against RSV cytopathology in HeLa cells, 7 days after infection. The source says:
The percent protection against cytopathology caused by viruses (antiviral activity or EC50) achieved by tested compounds and their cytotoxicity (CC50) are both calculated from dose-response curves. The selectivity of the antiviral effect is represented by the selectivity index (SI), calculated by dividing the CC50 (cytotoxic dose for 50% of the cells) by the EC50 (antiviral activity for 50% of the cells). The tables in the above experimental part list the category to which each of the prepared compounds belong. Compounds belonging to activity category “A” have an pEC50 (−log of EC50 when expressed in molar units) equal to or more than 7. Compounds belonging to activity category “B” have a pEC50 value between 6 and 7.
Automated tetrazolium-based […] assays were used for determination of EC50 and CC50 of test compounds. Flat-bottom, 96-well plastic microtiter trays were filled with 180 μl of Eagle's Basal Medium, supplemented with 5% FCS (0% for FLU) and 20 mM Hepes buffer. Subsequently, stock solutions (7.8× final test concentration) of compounds were added in 45 μl volumes to a series of triplicate wells so as to allow simultaneous evaluation of their effects on virus- and mock-infected cells. Five five-fold dilutions were made directly in the microtiter trays using a robot system. Untreated virus controls, and HeLa cell controls were included in each test. Approximately 100 TCID50 of Respiratory Syncytial Virus was added to two of the three rows in a volume of 50 μl. The same volume of medium was added to the third row to measure the cytotoxicity of the compounds at the same concentrations as those used to measure the antiviral activity. After two hours of incubation, a suspension (4×10^5 cells/ml) of HeLa cells was added to all wells in a volume of 50 μl. The cultures were incubated at 37° C. in a 5% CO2 atmosphere. Seven days after infection the cytotoxicity and the antiviral activity was examined spectrophotometrically. To each well of the microtiter tray, 25 μl of a solution of MTT (3-(4,5-dimethylthiazol-2-yl)-2,5-diphenyltetrazolium bromide) was added. The trays were further incubated at 37° C. for 2 hours, after which the medium was removed from each cup. Solubilization of the formazan crystals was achieved by adding 100 μl 2-propanol. Complete dissolution of the formazan crystals were obtained after the trays have been placed on a plate shaker for 10 min. Finally, the absorbances were read in an eight-channel computer-controlled photometer (Multiskan MCC, Flow Laboratories) at two wavelengths (540 and 690 nm). The absorbance measured at 690 nm was automatically subtracted from the absorbance at 540 nm, so as to eliminate the effects of non-specific absorption.
On the technique in general: Tetrazolium assays rely on reduction of a dye to a coloured formazan, in cell work by metabolically active cells.
Regarding `CCOC(=O)c1ccc2nc(NC3CCNCC3)n(Cc3nc(C)ccc3O)c2c1` [Compound 141], the Activity entry is recorded as “C (pEC50 value equal to or below 6)”.

Staying with this test, now noted: protection against RSV cytopathology in HeLa cells, 7 days after infection; pEC50 = −log of EC50 in molar units.
Regarding `Cc1ccc(CCc2ccc3nc(NC4CCN(C)CC4)n(Cc4nc(C)ccc4O)c3c2)cc1` [Compound 84], the Activity came out at 6.8.
The same measure, in the same setting: to `Cc1ccc(O)c(Cn2c(NC3CCN(C)CC3)nc3ccc(CNc4ccc(Br)cc4)cc32)n1` [Compound 38] belongs 7.7; to `CC(=O)c1ccc(NCc2ccc3nc(NC4CCN(C)CC4)n(Cc4nc(C)ccc4O)c3c2)cc1` [Compound 17], 8; to `CCN(CCO)Cc1ccc2nc(NC3CCN(C)CC3)n(Cc3nc(C)ccc3O)c2c1` [Compound 111], 5.6.
Still for that read-out and setting: next, `Cc1ccc(O)c(Cn2c(NCCc3ccccc3)nc3ccc(CNc4cc(Cl)cc(Cl)c4)cc32)n1` [Compound 192]: below 4.
The same measure, in the same setting: to `Cc1ccc(O)c(Cn2c(NC3CCN(C)CC3)nc3ccc(CNc4ccc(CC#N)cc4)cc32)n1` [Compound 34] belongs 7.8; to `Cc1cc(C)c(NCc2ccc3nc(NC4CCN(C)CC4)n(Cc4nc(C)ccc4O)c3c2)c(Cl)c1` [Compound 88], 6.8.
The compound `Cc1ccc(O)c(Cn2c(NC3CCN(C)CC3)nc3ccc(C(O)c4ccccc4)cc32)n1` (stereo not drawn) [Compound 86] returned an Activity of 6.8.
For the compound `Cc1ccc(O)c(Cn2c(NC3CCN(C)CC3)nc3cc(C(=O)NCc4ccco4)ccc32)n1` [Compound 118], the Activity stood at 4.9.
Still for that read-out and setting: to `Cc1ccc(O)c(Cn2c(NC3CCN(CCO)CC3)nc3ccc(CCc4ccccc4)cc32)n1` [Compound 162] belongs 7.5.
On the same count and under the same terms, next, `Cc1ccc(O)c(Cn2c(NC3CCN(C)CC3)nc3ccc(CN4CCOCC4)cc32)n1` [Compound 98]: 6.5; `Cc1ccc(O)c(Cn2c(NC3CCN(C)CC3)nc3ccc(CN(c4ccccc4)c4ccc(O)cc4)cc32)n1` [Compound 16]: 8.
Compound `Cc1ccc(O)c(Cn2c(NCCc3ccccc3)nc3cc(CO)ccc32)n1` [Compound 185] registered an Activity below 4.
On the same count and under the same terms, next, `Cc1ccc(O)c(Cn2c(NC3CCN(C)CC3)nc3ccc(CNc4cc(Cl)c(Cl)cc4Cl)cc32)n1` [Compound 77]: 7; `Cc1ccc(/C=C/c2ccc3nc(NC4CCN(C)CC4)n(Cc4nc(C)ccc4O)c3c2)cc1` [Compound 128]: below 4.
Same read-out and setting: to `Cc1ccc(O)c(Cn2c(NC3CCN(C)CC3)nc3ccc(CN4CCc5cc(Br)ccc54)cc32)n1` [Compound 81] belongs 6.9; to `Cc1ccc(O)c(Cn2c(NC3CCN(C)CC3)nc3ccc(C(=O)NCCc4ccccc4)cc32)n1` [Compound 136], below 4; to `Cc1ccc(O)c(Cn2c(NC3CCN(C)CC3)nc3ccc(CNc4ccc(S(N)(=O)=O)cc4)cc32)n1` [Compound 10], 8.3.
On the same count and under the same terms, next, `COc1ccc(CCNc2nc3cc(CO)ccc3n2Cc2nc(C)ccc2O)cc1` [Compound 189]: below 4; `Cc1ccc(O)c(Cn2c(NCCCN3CCCCC3)nc3cc(CO)ccc32)n1` [Compound 182]: 5.
`Cc1ccc(O)c(Cn2c(NC3CCN(C)CC3)nc3ccc(CNc4ccccc4F)cc32)n1` [Compound 23] displayed an Activity of 7.9.
Still for that read-out and setting: to `Cc1ccc(O)c(Cn2c(NC3CCN(C)CC3)nc3ccc(NC(=O)c4cccnc4)cc32)n1` [Compound 114] belongs 5.2; to `Cc1ccc(O)c(Cn2c(NC3CCN(CCN)CC3)nc3cc(CCc4ccccc4)ccc32)n1.Cl` [Compound 157], 7.9; to `Cc1cccc(CCc2ccc3c(c2)nc(NC2CCN(CCN)CC2)n3Cc2nc(C)ccc2O)c1.Cl` [Compound 158], 7.9.
The same measure, in the same setting: next, `Cc1ccc(O)c(Cn2c(NC3CCN(C)CC3)nc3ccc(CNc4ccc(Cl)cc4Cl)cc32)n1` [Compound 70]: 7.2.
The same measure, in the same setting: to `Cc1ccc(O)c(Cn2c(NC3CCN(C)CC3)nc3ccc(NCc4ccccc4)cc32)n1` [Compound 56] belongs 7.3.
